Entries after “also recorded” stand apart in the source; their conditions may differ.
Experiments:
[1] = system: mouse bone marrow-derived mast cells; assay: Arachidonate content of cellular phospholipids of mast cells (method e); assay type: cell-based
Protocol: As treatment of intact cells blocks the movement of arachidonate into specific cellular phospholipids, it followed that prolonged treatment of inflammatory cells with CoA-IT inhibitors could deplete their large endogenous pools of arachidonate within phospholipids. To determine that CoA-IT inhibition can alter the amount of arachidonate within cellular phospholipids, mouse bone marrow-derived mast cells were treated with Compound 3 for 24 hours and the mass of arachidonate within total cellular phospholipids was determined. Compound 3 induced a concentration-dependentreduction in the total cellular arachidonate within mast cells, with greater than 75% reduction apparent at 20 μM. […]
The following is the method for assessing the ability of a compound to alter arachidonate content of cellular phospholipids, which can be generalized for any desired cell. […] The radioactive and mole quantities of arachidonate in complex lipids are determined. At this point, cellular lipid extracts are treated with KOH (0.5M) to remove fatty acids from complex lipids (phospholipids) and the quantities of arachidonate in these extracts can then be determined by various methods, including gas chromatography and mass spectrometry (Chilton [Methods Enzymol. (1990) 187, 157-166]).

[2] = system: TPA-induced inflammation in the mouse ear; assay: TPA-induced inflammation of the mouse ear (assay d): ear thickness, myeloperoxidase; assay type: in vivo; details: topical TPA
Protocol: The ability of compounds that inhibit CoA-IT to affect in vivo inflammatory responses was assessed. Inflammatory responses were induced in the mouse ear by the topical application of a pro-inflammatory agent, such as 12-0-tetradecanoylphorbol 13-acetate. This produced an edematous response, as measured by increases in ear thickness, as well as increased inflammatory cellular infiltrate, as measured by increases in myeloperoxidase activity as described in the methods.
Male Balb/c inbred mice were obtained from Charle River Breeding Laboratories (Kingston, N.Y.). Within a single experiment mice (22-25 g) were age-matched. These in vivo experiments typically involved use of 5-6 animals/group.
TPA (12-0-tetradecanoylphorbol 13-acetate) (Sigma Chemical Company) in acetone (4 μg/20 μl) was applied to the inner and outer surfaces of the left ear of BALB/c male mice. The thickness of both ears was then measured with a dial micrometer (Mitutoyo, Japan) at both 2 and 4 hours after treatment, and the data expressed as the change in thickness (10-^3 cm) between treated and untreated ears. […] After measuring the edema, the inflammed left ears were removed and stored at -70° C. until they were assayed for MPO (myeloperoxidase) activity where appropriate. […]

human neutrophils [3] = assay: Arachidonic acid release assay (assay b), A23187-challenged neutrophils; assay type: cell-based
Protocol: Human neutrophils were obtained in the laboratory using three different methods. One method used leukophoresis packs from normal humans and neutrophils were isolated using the histopaque-1077 technique. The blood was centrifuged at 300× g for 10 minutes. The cell pellets were resuspended in PBS composed of 137 mM NaCI, 8.8 mM Na2HPO4, 1.5 mM KH2PO4, 2.7 mM KCI (Dulbecco's Gibco Laboratories, Long Island, N.Y.) and layered over histopaque-1077 (Sigma, St. Louis, Mo.). The pellets were collected after centrifugation (300× g for 30 minutes) and washed once in PBS. The cell pellets were exposed briefly to dionized water to Iyse any erythrocytes. The remaining cells were collected by centrifugation, suspended in PBS, counted and identified after cytospinning and staining. The final leukocyte preparation was of greater than 95% purity and viability.
The second method isolated human neutrophils from fresh heparinized normal blood using the Histopaque-1077 technique. […] The remaining cells were collected by centrifugation, suspended in PBS, counted and identified after cytospinning and staining. […]
The third method isolated human neutrophils from freshly drawn heparinized normal blood using the Percoll technique. […] The neutrophils were suspended in PBS, counted and identified after cytospinning and staining. […]

human neutrophils [4] = assay: Assay for production of platelet-activating factor (assay c), A23187-challenged neutrophils; assay type: cell-based
Protocol: Blood was obtained from normal humans and neutrophils were isolated as described for the arachidonic acid release assay, above. The final leukocyte preparation was of greater than 95% purity and viability.
Neutrophils were suspended in PBS at concentrations of 5 to 20×10^6 cells per ml. Cells were added to test tubes and treated with the desired compounds for 5 to 10 minutes, then challenged with calcium ionophore A23187, 2 μM and 20-30 μCi of [^3 H]acetic acid (NEN-Dupont, Boston, Mass.), or the vehicle of PBS with 0.25-1 mg/ml […]. After 5 to 20 minutes, the reactions were terminated by addition of an equal volume of chloroform:methanol (1:2, v/v) to the samples and the lipids were extracted by addition of equal volumes of chloroform and distilled water. The samples were vortexed and centrifuged at high speed and the chloroform layer removed to a clean tube.
The chloroform from each tube was evaporated to dryness and the material suspended in a small volume of chloroform or chloroform:methanol (25-100 μl) and the total material spotted on a Silica TLC plate. The plates were developed in chloroform/methanol/acetic acid/water (50:25:8:4, v/v) visualized by radioscanning (Bioscan) and the product, [^3 H]PAF, was scraped and quantified by liquid scintillation spectroscopy. With this TLC system, the Rf value for a synthetic standard of PAF was approximately 0.33.

intact human neutrophils = assay: Movement of [3H]arachidonate into 1-ether-linked phospholipids in intact non-stimulated neutrophils (method e); assay type: cell-based; details: various concentrations, 2 hours, no cellular stimulation
Protocol: CoA-IT activity can also be measured in intact cells by following the movement of a pulse of [^3 H]arachidonate as it moves into the "pool 2" phospholipids (1-alkyl and 1-alkenyl phospholipids) in inflammatory cells. These specific studies were performed in intact human neutrophils, which contain CoA-IT activity and transfer arachidonate into 1-alkyl and 1-alkenyl phospholipids. To determine the effects of Compound 3 on this transfer of arachidonate, neutrophils were exposed briefly to [^3 H]arachidonic acid to allow incorporation of the label into 1-acyl phospholipids, treated with various concentrations of Compound 3 and the movement of [^3 H]arachidonate between phospholipid subclasses assessed over the subsequent 2 hours in the absence of cellular stimulation.
Measurement of the effect of CoA-IT inhibitors on the transfer of [^3 H]arachidonate into 1-ether phospholipids in non-stimulated inflammatory cells can be accomplished by general application of the following specific method. Human neutrophils were isolated and resuspended (5×10^7 /ml) in Hanks Balanced Salt Solution (HBSS; Gibco). […] The phospholipid subclasses were separated by TLC in benzene/hexane/ethyl ether (50:45:4, v/v), located by image analysis (Bioscan) and the amount of radioactivity in each class was determined by zonal scraping and liquid scintillation counting.

For `CCOP(=O)(CCCCCCCn1c(-c2ccccc2)c(-c2ccccc2)n(-c2ccccc2)c1=O)OCC` [Compound 3, Diethyl 7-(3-4-5-triphenyl-2-oxo-2-3-dihydroimidazol-1-yl)heptane phosphonate], the “loss of arachidonate from all major phospholipid classes of the mast cell” value ([1]; 24 hours, various concentrations) was “concentration-dependent loss”, the “loss in the mass of 18:0, 18:1, 18:2 from PI, PE and PC” value ([1]; mast cells) was “no loss” and the “anti-inflammatory effect in vivo (TPA-induced mouse ear inflammation)” value ([2]; listed as Example 3) was “positive inhibition; also recorded: anti-inflammatory responses”. For the same molecule, the “anti-inflammatory effect in vivo (TPA-induced mouse ear inflammation)” value ([2]; listed as compound 3) was “anti-inflammatory effect”, the “inhibition of free arachidonic acid release” value (human neutrophils [3]) was “completely and in a concentration dependent fashion; also recorded: inhibition” and the “inhibition of PAF production” value (human neutrophils [4]) was “completely and in a concentration dependent fashion; also recorded: inhibition”. For the same molecule, the “movement of [3H]arachidonate into 1-ether-linked phospholipids, 1-alkyl PC and 1-alkenyl PE” value (intact human neutrophils) was “concentration-dependent blockade; also recorded: completely block” and the “movement of [3H]arachidonate into 1-ether-linked phospholipids, 1-alkyl PC and 1-alkenyl PE” value (intact human neutrophils; listed as Example 3) was “concentration-dependent blockade”.
